One assay concerns the target Actin-related protein 2 (Homo sapiens, UniProt P61160).
The target of assay [1] is RAC-alpha serine/threonine-protein kinase (Homo sapiens, UniProt P31749).
The target of assay [2] is T1, Cysteine--tRNA ligase, cytoplasmic (Homo sapiens, UniProt P49589).
T1 sequence (P49589 whole entry): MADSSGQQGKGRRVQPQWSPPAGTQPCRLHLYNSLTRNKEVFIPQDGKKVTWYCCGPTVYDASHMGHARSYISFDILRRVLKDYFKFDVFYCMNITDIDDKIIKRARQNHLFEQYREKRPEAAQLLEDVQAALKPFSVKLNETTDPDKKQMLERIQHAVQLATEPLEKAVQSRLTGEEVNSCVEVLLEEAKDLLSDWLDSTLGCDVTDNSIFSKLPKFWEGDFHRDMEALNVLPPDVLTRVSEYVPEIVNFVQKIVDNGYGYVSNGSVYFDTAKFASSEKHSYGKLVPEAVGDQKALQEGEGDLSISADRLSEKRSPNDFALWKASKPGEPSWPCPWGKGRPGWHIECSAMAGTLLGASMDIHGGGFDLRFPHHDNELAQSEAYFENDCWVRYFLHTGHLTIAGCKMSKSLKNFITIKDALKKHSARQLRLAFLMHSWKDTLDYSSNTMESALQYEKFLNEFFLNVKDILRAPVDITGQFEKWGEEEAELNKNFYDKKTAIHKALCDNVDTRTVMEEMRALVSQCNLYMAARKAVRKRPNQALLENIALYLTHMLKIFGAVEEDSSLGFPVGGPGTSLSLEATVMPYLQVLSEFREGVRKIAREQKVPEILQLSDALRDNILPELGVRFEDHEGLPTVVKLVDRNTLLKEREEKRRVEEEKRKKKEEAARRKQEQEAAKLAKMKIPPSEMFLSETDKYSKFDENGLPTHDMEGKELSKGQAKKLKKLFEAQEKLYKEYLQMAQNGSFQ

In assay [3] the target is Glycogen synthase kinase-3 beta (Homo sapiens, UniProt P49841).
Assay [4] has as its target Dual specificity mitogen-activated protein kinase kinase 2 (Homo sapiens, UniProt P36507).
Assay [5] has as its target T2, Serine/threonine-protein kinase Nek3 (Homo sapiens, UniProt P51956).
T2 sequence (P51956 whole entry): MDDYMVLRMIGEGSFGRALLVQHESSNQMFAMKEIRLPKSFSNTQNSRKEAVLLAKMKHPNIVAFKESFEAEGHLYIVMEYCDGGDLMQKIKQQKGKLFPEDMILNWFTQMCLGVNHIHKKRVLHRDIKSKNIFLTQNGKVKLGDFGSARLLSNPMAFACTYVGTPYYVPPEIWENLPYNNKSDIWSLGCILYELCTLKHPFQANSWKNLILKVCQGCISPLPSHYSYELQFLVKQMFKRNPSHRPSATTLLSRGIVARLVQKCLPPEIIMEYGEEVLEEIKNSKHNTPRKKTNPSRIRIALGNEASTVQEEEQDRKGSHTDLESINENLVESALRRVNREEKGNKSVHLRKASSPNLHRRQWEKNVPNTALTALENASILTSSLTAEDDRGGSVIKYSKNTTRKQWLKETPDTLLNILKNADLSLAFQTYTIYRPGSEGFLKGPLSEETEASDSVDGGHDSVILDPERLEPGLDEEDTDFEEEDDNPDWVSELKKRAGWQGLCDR

The target in assay [6] is cAMP-dependent protein kinase type II-alpha regulatory subunit (Homo sapiens, UniProt P13861).
The target in assay [7] is Receptor-interacting serine/threonine-protein kinase 2 (Homo sapiens, UniProt O43353).
Assay [8] addresses T3, Serine/threonine-protein kinase TAO2 (Homo sapiens, UniProt Q9UL54).
T3 sequence (Q9UL54 whole entry): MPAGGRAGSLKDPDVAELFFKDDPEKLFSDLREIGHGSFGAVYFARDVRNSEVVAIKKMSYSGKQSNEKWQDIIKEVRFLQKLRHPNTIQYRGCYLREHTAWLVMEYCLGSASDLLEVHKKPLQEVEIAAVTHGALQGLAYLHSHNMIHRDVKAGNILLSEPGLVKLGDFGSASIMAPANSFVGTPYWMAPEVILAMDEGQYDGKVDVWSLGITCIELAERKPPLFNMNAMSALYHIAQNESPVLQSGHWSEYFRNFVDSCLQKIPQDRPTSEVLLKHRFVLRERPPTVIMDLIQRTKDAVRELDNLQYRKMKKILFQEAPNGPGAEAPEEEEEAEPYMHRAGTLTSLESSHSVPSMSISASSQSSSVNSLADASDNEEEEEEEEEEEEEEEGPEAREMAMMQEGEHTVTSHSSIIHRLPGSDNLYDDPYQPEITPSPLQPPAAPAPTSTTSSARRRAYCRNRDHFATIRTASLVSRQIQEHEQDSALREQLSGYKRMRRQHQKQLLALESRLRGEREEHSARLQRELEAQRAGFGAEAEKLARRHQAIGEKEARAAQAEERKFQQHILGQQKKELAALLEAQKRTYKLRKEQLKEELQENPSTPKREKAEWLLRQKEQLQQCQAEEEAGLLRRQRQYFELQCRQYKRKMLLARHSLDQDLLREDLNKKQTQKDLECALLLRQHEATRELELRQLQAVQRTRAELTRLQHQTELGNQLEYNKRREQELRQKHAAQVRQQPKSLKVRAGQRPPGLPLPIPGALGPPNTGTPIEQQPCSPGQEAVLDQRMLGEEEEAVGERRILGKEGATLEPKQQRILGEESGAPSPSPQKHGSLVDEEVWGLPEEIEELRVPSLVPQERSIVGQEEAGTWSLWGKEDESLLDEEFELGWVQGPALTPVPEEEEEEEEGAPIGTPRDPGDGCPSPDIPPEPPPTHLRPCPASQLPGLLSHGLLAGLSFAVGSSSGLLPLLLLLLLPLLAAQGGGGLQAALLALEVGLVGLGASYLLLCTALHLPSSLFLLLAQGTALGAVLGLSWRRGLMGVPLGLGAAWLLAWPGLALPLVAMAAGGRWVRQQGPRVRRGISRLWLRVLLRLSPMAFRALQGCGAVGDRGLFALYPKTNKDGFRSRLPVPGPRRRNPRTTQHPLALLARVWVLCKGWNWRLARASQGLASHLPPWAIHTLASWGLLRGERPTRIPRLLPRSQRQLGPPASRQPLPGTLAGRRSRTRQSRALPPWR

The target in the next assay is DNA topoisomerase 2-beta (Homo sapiens, UniProt Q02880).

Calls of active or inactive are those of the source.
Note: in the data inactive means no Kd found up to 30 µM.

Chain of RAC-alpha serine/threonine-protein kinase (P31749 whole entry): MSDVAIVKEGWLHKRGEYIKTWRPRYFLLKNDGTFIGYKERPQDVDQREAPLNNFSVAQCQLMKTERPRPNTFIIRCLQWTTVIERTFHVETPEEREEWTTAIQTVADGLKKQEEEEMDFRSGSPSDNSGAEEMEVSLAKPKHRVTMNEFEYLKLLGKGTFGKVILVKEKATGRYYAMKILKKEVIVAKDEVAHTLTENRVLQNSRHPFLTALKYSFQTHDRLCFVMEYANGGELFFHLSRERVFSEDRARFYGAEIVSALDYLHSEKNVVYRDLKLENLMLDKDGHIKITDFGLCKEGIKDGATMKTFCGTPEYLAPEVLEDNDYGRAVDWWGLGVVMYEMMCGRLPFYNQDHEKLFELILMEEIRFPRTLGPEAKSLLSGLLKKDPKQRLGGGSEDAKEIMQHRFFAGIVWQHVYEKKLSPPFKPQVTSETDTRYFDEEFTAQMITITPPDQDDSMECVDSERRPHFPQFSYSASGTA
Chain of cAMP-dependent protein kinase type II-alpha regulatory subunit (P13861 whole entry): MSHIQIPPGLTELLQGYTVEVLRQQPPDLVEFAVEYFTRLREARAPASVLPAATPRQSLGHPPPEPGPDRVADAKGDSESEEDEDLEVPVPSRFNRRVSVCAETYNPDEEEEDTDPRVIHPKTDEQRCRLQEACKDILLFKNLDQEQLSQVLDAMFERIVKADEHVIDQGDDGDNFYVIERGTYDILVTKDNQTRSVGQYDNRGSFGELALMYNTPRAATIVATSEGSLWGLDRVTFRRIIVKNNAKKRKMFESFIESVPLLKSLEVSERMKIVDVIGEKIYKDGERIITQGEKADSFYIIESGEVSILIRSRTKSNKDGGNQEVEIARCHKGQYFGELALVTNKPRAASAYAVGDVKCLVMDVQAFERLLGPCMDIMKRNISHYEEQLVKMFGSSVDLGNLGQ
Chain of Dual specificity mitogen-activated protein kinase kinase 2 (P36507 whole entry): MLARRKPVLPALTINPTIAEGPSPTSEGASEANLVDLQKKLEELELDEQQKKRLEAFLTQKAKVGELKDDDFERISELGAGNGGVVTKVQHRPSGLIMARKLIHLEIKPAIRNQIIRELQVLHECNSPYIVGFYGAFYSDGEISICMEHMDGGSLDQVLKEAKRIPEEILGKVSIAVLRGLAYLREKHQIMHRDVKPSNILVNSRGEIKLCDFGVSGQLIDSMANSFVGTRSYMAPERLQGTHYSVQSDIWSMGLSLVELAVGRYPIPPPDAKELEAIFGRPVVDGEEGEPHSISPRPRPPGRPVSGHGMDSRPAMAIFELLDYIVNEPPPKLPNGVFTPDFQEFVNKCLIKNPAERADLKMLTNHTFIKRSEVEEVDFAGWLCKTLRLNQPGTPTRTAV
Chain of DNA topoisomerase 2-beta (Q02880 whole entry): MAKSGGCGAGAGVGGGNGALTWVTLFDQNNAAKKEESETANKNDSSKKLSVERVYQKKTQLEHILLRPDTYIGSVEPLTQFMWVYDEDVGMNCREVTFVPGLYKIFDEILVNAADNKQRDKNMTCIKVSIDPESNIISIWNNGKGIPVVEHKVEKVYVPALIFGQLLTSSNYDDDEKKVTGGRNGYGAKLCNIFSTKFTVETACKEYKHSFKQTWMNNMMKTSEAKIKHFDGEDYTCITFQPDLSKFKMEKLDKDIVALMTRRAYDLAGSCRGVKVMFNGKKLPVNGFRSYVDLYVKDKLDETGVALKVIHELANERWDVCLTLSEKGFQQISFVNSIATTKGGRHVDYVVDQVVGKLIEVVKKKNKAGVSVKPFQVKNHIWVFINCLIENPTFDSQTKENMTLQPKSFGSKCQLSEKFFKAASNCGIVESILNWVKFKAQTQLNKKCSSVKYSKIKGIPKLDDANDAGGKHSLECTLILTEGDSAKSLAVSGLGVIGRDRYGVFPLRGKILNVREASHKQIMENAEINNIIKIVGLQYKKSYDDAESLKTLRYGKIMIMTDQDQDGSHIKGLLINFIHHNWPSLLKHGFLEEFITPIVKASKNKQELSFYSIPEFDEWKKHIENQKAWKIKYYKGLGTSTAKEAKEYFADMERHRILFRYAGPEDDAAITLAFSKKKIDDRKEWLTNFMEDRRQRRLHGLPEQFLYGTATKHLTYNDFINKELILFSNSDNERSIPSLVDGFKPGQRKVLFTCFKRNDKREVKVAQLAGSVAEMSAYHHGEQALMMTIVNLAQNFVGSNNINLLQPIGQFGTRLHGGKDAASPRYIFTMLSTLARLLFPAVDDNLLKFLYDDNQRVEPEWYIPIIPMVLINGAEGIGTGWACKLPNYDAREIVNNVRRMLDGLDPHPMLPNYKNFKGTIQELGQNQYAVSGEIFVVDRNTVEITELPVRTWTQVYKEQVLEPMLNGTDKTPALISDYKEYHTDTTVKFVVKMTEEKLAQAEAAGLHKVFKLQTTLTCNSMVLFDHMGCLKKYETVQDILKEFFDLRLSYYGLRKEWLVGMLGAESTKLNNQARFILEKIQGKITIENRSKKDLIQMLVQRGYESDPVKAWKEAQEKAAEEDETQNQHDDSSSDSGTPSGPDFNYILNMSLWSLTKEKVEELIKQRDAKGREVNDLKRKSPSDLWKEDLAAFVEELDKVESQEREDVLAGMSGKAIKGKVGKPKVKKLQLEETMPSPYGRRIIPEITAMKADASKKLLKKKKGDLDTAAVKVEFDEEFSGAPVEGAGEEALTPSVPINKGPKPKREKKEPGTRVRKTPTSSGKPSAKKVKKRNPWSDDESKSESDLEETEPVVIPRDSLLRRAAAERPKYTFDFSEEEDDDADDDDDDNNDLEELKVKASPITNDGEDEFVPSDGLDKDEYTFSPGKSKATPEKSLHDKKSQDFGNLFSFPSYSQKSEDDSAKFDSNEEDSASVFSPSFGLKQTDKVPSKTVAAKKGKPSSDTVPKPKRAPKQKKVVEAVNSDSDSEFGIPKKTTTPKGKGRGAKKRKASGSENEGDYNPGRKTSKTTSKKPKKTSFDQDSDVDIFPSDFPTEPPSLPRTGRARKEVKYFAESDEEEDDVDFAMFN
Chain of Receptor-interacting serine/threonine-protein kinase 2 (O43353 whole entry): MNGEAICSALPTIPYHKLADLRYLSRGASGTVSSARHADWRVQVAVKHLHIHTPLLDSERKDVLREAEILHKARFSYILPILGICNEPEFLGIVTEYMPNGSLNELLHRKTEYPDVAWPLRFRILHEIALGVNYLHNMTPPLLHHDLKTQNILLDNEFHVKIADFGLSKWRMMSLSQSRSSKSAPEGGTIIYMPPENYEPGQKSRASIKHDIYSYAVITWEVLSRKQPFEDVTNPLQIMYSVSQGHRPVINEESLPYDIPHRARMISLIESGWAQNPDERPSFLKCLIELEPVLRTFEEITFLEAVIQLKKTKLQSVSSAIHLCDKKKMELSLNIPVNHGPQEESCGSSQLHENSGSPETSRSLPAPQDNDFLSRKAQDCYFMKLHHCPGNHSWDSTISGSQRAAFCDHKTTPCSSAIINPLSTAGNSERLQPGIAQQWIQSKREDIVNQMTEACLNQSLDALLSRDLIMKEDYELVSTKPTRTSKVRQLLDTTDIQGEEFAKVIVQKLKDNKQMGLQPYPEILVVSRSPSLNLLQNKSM
Chain of Glycogen synthase kinase-3 beta (P49841 whole entry): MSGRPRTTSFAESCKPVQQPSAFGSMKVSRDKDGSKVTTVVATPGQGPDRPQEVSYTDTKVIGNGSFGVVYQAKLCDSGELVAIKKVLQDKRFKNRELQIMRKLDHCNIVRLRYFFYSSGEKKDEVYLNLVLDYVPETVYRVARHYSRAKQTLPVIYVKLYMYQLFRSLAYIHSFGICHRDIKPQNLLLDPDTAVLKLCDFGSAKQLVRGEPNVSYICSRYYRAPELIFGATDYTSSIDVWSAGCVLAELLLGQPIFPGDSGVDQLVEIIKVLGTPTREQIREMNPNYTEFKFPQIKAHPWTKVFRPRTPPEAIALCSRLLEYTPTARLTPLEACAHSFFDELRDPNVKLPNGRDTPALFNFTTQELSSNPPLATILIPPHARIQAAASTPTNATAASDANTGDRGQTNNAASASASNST

`CO[C@H]1C[C@@H]2CC[C@@H](C)[C@@](O)(O2)C(=O)C(=O)N2CCCC[C@H]2C(=O)O[C@H]([C@H](C)C[C@@H]2CC[C@@H](O)[C@H](OC)C2)CC(=O)[C@H](C)/C=C(\C)[C@@H](O)[C@@H](OC)C(=O)[C@H](C)C[C@H](C)/C=C/C=C/C=C/1C` [SIROLIMUS]: the Kd (on Actin-related protein 2; in assay [1]; in [2]; in assay [3]; in [4]; in [5]) was > 30 µM (inactive) each time. Besides, the Kd (in assay [6]; in assay [7]; in [8]; at DNA topoisomerase 2-beta) was > 30 µM (inactive) throughout.
Take `CO[C@H]1C[C@@H]2CC[C@@H](C)[C@@](O)(O2)C(=O)C(=O)N2CCCC[C@H]2C(=O)O[C@H]([C@H](C)C[C@@H]2CC[C@@H](OC(=O)C(C)(CO)CO)[C@H](OC)C2)CC(=O)[C@H](C)/C=C(\C)[C@@H](O)[C@@H](OC)C(=O)[C@H](C)C[C@H](C)/C=C/C=C/C=C/1C` [TEMSIROLIMUS]: the Kd (on Actin-related protein 2; in assay [1]; in assay [2]; in assay [3]; in assay [4]; in assay [5]) was > 30 µM (inactive) in each case. Moreover, the Kd (in assay [6]; in assay [7]; in assay [8]; at DNA topoisomerase 2-beta) was > 30 µM (inactive) throughout.
Consider `COc1cc2c(Nc3ccc(Cl)c(Cl)c3F)ncnc2cc1OC[C@@H]1C[C@@H]2CN(C)C[C@@H]2C1` [TESEVATINIB], for which the Kd (at Actin-related protein 2; in assay [1]; in assay [2]; in assay [3]; in [4]; in assay [5]) was > 30 µM (inactive) in each case. The Kd in assay [6] is > 30 µM (inactive); in assay [7], 0.033 µM (active); in [8], > 30 µM (inactive); at DNA topoisomerase 2-beta it was > 30 µM (inactive).
In the case of `O=C(Cc1ccc(-c2ccc(OCCN3CCOCC3)cc2)cn1)NCc1ccccc1` [TIRBANIBULIN], the Kd (at Actin-related protein 2; in [1]; in assay [2]; in [3]; in [4]; in assay [5]) was > 30 µM (inactive) each time. For the same compound, the Kd (in assay [6]; in assay [7]; in assay [8]; on DNA topoisomerase 2-beta) was > 30 µM (inactive) in each case.
Take `O=C1NC(=O)[C@@H](c2cn3c4c(cccc24)CCC3)[C@@H]1c1c[nH]c2ccccc12` [TIVANTINIB]: the Kd (on Actin-related protein 2; in [1]; in assay [2]; in assay [3]; in assay [4]; in [5]) was > 30 µM (inactive) in each case. Besides, the Kd (in assay [6]; in [7]; in assay [8]; at DNA topoisomerase 2-beta) was > 30 µM (inactive) in each case.
As to `C[C@@H](NC(=O)c1ncnc(N)c1Cl)c1ncc(C(=O)Nc2cc(C(F)(F)F)c(Cl)cn2)s1` [TOVORAFENIB], the Kd (at Actin-related protein 2; in assay [1]; in assay [2]; in assay [3]; in [4]; in [5]) was > 30 µM (inactive) in each case. For the same compound, the Kd (in assay [6]; in assay [7]; in assay [8]; on DNA topoisomerase 2-beta) was > 30 µM (inactive) in each case.
Regarding `Cc1cc(Nc2ncnc3ccc(NC4=NC(C)(C)CO4)cc23)ccc1Oc1ccn2ncnc2c1` [TUCATINIB], the Kd (on Actin-related protein 2; in assay [1]; in assay [2]; in [3]; in assay [4]; in [5]) was > 30 µM (inactive) in each case. Besides, the Kd (in assay [6]; in assay [7]; in assay [8]; on DNA topoisomerase 2-beta) was > 30 µM (inactive) each time.
Regarding `CC(C)c1cc(CNc2nc(Nc3cc(C4CC4)[nH]n3)cc(N3CCN(C)CC3)n2)on1` [XL-228], the Kd at Actin-related protein 2 was > 30 µM (inactive); in [1], > 30 µM (inactive); in assay [2] it was > 30 µM (inactive); in assay [3] it was > 30 µM (inactive); in [4] it was 4.21 µM; in assay [5] it was > 30 µM (inactive). Besides, the Kd (in assay [6]; in assay [7]; in assay [8]; on DNA topoisomerase 2-beta) was > 30 µM (inactive) throughout.
For `CN1C/C=C/CCOc2cccc(c2)-c2ccnc(n2)Nc2cccc(c2)C1` [ZOTIRACICLIB], the Kd at Actin-related protein 2 is > 30 µM (inactive); in assay [1], > 30 µM (inactive); in assay [2], > 30 µM (inactive); in [3] it was 0.447 µM (active); in [4], > 30 µM (inactive); in assay [5], > 30 µM (inactive). The Kd was > 30 µM (inactive) in assay [6], > 30 µM (inactive) in assay [7], 1.07 µM (active) in assay [8] and > 30 µM (inactive) at DNA topoisomerase 2-beta.

The values above are taken from ChEMBL document CHEMBL3991601, “The target landscape of clinical kinase drugs” (Science, 2017).
